Measured values as given in patent publication US20230340027A1, “UBIQUITIN HIGH AFFINITY PEPTIDES, AND METHODS OF USING SAME, AND IDENTIFYING SAME” (TECHNION RESEARCH & DEVELOPMENT FOUNDATION LIMITED, priority 2020, published 2023).
Starred links: 1 amine or outer side, 2 acyl side, 3 side chain; linkers in the order of their positions; H or OH if unused. Positions of bridges follow the written chain, without caps; N, C: chain ends. Non-standard residues stand in square brackets, D forms with d. Residues, ends and D or L forms follow the SMILES beside them. Chains are numbered I, II in the order given. No end group written: not given here. *: point of attachment. Fluorescein(5-Mal) = O=C1OC2(c3ccc(O)cc3Oc3cc(O)ccc32)c2ccc(N3C(=O)CC(*)C3=O)cc21; CH2 = C([*:1])[*:2]

Experiments:
[1] = biological target: T1, biotin-tetra-UbK48 (Homo sapiens, UniProt P0CG47); assay: Fluorescence-based competitive assay for peptide screening (relative binding vs Ub4_ix); settings: 5 molar equiv unlabeled peptide, competition with Ub4_ix-FITC; fluorescence inversely proportional to affinity
T1 construct: a Ub polymer comprises Ub monomers linked to one another at lysine (Lys) residue at position 48 (K48); made in house; host or cells: total chemical synthesis (no expression host)
Experimental: Streptavidin-coated microplate (96 well plate) was washed (3×100 μl) with HEPES buffer. Then, 1 μg of biotin-tetra-UbK48 in 100 μl of HEPES buffer was incubated in each well for 30 minutes at room temperature (RT). Additional wells were kept free of biotin-tetra-UbK48 for subsequent blank subtraction. Following a washing step, unlabeled candidate peptides, including peptide-standard (Ub4_ix), were incubated in an excess amount (5 molar equiv. relative to biotin-tetra-UbK48) for 30 minutes at RT to saturate binding to the target. […] Finally, following washing, each well was treated with 100 μl of 6 M Gn·HCl at RT for 30 minutes to release the bound peptides. Then, the solution with the released peptides was transferred to Nunc black 96-well plate and fluorescence was measured (λ excitation=480 nm and λ emission=525 nm). The obtained values were then normalized, and compared with peptide standard, while the fluorescence signal was inversely proportional to the binding affinity of the peptide. The calculations of relative change in binding were performed according to the formula: Y=−[1−(a/b)]×100, where Y is the change in the signal relative to the standard Ub4_ix (in percentage); a is signal measured for each peptide variant (in relative fluorescence units); b is signal measured for Ub4_ix.
The inventors envisioned a screening strategy to proceed through four main steps, each terminated by washings with binding buffer. First, biotin tagged tetra-UbK48 was immobilized in a constant amount (1 μg per well) in streptavidin covered 96 well plate (FIG. 1(i and ii)). Then, unlabeled candidate peptides were incubated in excess in each well to saturate binding to the target. […] Finally, the bound peptides were released from wells by treatment with 6 M guanidine hydrochloride (Gn·HCl) solution followed by measuring the gained fluorescence (FIG. 1(i)). The obtained values were then compared to the fluorescence of the control well containing the unlabeled peptide to calculate relative binding. The gained fluorescence was inversely proportional to the binding affinity of the peptide candidate. […]

[2] = system: HeLa cells; assay: Flow cytometry annexin V-FITC/PI apoptosis / viability assay; assay type: cell-based
Experimental: Induction of apoptosis in Hela cell lines by treatment with cyclic peptides was determined using annexin V-FITC/propidium iodide(PI) apoptosis detection kit (BD Biosciences) according to the manufacturer's protocol. 2×10^5 cells/well were treated with inhibitors for 24- and 48-hours in a dose dependent manner. Apoptotic cells were determined as annexin V-FITC positive and PI negative. DMSO and MG132 were used as negative and positive controls respectively. Samples were acquired on a Becton Dickinson LSR II flow cytometer (BD Biosciences) and analyzed using Flowjo software.

[3] = biological target: T2, tetra-Ub K48 (Homo sapiens, UniProt P0CG47); assay: Kd determination of FITC-labeled peptides on immobilized biotin-tetra-UbK48 (fluorescence binding curve); settings: FITC-labeled peptide, tetra-Ub K48, one site non-cooperative binding model, triplicates; read-out: dissociation constant (Kd)
T2 construct: a Ub polymer comprises Ub monomers linked to one another at lysine (Lys) residue at position 48 (K48); made in house; host or cells: total chemical synthesis (no expression host)
Experimental: (1C) The bound peptides are released using Guanidinium-HCl (Gn·HCl) and the fluorescence intensity is measured. (1ii) A non-limiting schematic representation for measuring the dissociation constant (Kd) of FITC-labeled peptide with different concentrations. (1D) A FITC-labeled cyclic peptide with different concentrations are introduced in different wells for binding to the biotin-tetra Ub. (1E) Washing out the unbounded labeled cyclic peptide. (1F) The bound peptides are released using Gn·HCl and the fluorescence intensity is measured. […] All measurements were performed in triplicates.
To determine the dissociation constant (Kd) of labeled peptides, following immobilization step of biotin-tetra-UbK48, different concentrations of the labeled peptide were incubated. Then, the bound cyclic peptides were released with 6 M Gn·HCl, followed by fluorescence measurement (λex=480 nm and λem=525 nm). […]
First, biotin tagged tetra-UbK48 was immobilized in a constant amount (1 μg per well) in streptavidin covered 96 well plate (FIG. 1(i and ii)). […] Finally, the bound peptides were released from wells by treatment with 6 M guanidine hydrochloride (Gn·HCl) solution followed by measuring the gained fluorescence (FIG. 1(i)). The obtained values were then compared to the fluorescence of the control well containing the unlabeled peptide to calculate relative binding. […]

[4] = system: HeLa cells; assay: Peptide cell uptake, live-cell confocal microscopy; assay type: cell-based; settings: 1 μM, 2 hours, confocal microscope, FITC signal
Experimental: HeLa cells (CCL-2™) were purchased from ATCC®. Dulbecco's modified Eagle's medium (DMEM), Eagle's minimum essential medium (EMEM), Fetal bovine serum (FBS), L-Glutamine, antibiotics (penicillin/streptomycin), trypsin/EDTA and phosphate-buffered saline (PBS) were purchased from biological industries. Hoechst 33342 solution (20 mM), SYTOX blue (5 mM) and Lysotracker probes were purchased from Thermo-fisher. μ-Slide 8 well ibiTreat for live-cell confocal microscopy was purchased from ibidi and polylysine hydrobromide was purchased from Sigma. Distribution of fluorescent peptides in live cells was analyzed using a confocal laser scanning microscope (Confocal Zeiss LSM 710) equipped with 40×NA 1.2 water immersion objective. During CLSM analysis the samples were kept at 37° C. in a humidified chamber.
The cells were washed with PBS buffer followed by addition of fresh phenol-free optical medium and live-cell imaging was carried out using a LSM 710 laser scanning confocal microscope equipped with an environmental control module.

Compound: Ub4_ix_S7A: Ub4_ix analogue from Alanine scan, position 7 Ala; likely WLYLDDAGDWWICG (SEQ ID NO: 5) ({CH2CO}-WLYLDDAGDWWICG; thioether N-13 (inferred))
- change in the relative fluorescence signal compared to Ub4_ix (improved binding) [1]: ~13%

Compound: peptide 23: disulfide bond containing dimeric cyclic peptide of Ub4_ix_S7C ({CH2CO}-WLYLDDCGDWWICG; thioether N-13 (inferred); also: dimer joined by disulfide bond, places not given here)
- change in the relative fluorescence signal compared to Ub4_ix (improved binding) [1]: ~70%

Compound: 24: methylene group stapled dimer of Ub4_ix_S7C, —S—CH2—S— bridge ({CH2CO}-WLYLDDCGDWWICG; thioether N-13 (inferred); also: dimer: Cys7 joined to Cys7 of second copy by -S-CH2-S- bridge) [compound 24]
- change in the relative fluorescence signal compared to Ub4_ix (improved binding) [1]: ~57%
- early- and late stage apoptosis compared to Ub4_ix ([2]; HeLa cells, Annexin V/PI, 24 or 48 h): increased early- and late stage apoptosis
- induction of cell death ([2]; Hela cells, 24- and 48-hours incubation): able to induce cell death

Compound: CC[C@H](C)[C@@H]1NC(=O)[C@H](Cc2c[nH]c3ccccc23)NC(=O)[C@H](Cc2c[nH]c3ccccc23)NC(=O)[C@H](CC(=O)O)NC(=O)CNC(=O)[C@H](CSCSC[C@@H]2NC(=O)[C@H](CC(=O)O)NC(=O)[C@H](CC(=O)O)NC(=O)[C@H](CC(C)C)NC(=O)[C@H](Cc3ccc(O)cc3)NC(=O)[C@H](CC(C)C)NC(=O)[C@@H](Cc3c[nH]c4ccccc34)NC(=O)CSC[C@@H](C(=O)NCC(=O)N[C@@H](C)C(=O)N[C@@H](CSC3CC(=O)N(c4ccc5c(c4)C(=O)OC54c5ccc(O)cc5Oc5cc(O)ccc54)C3=O)C(N)=O)NC(=O)[C@H]([C@@H](C)CC)NC(=O)[C@H](Cc3c[nH]c4ccccc34)NC(=O)[C@H](Cc3c[nH]c4ccccc34)NC(=O)[C@H](CC(=O)O)NC(=O)CNC2=O)NC(=O)[C@H](CC(=O)O)NC(=O)[C@H](CC(=O)O)NC(=O)[C@H](CC(C)C)NC(=O)[C@H](Cc2ccc(O)cc2)NC(=O)[C@H](CC(C)C)NC(=O)[C@@H](Cc2c[nH]c3ccccc23)NC(=O)CSC[C@@H](C(=O)NCC(=O)N[C@@H](C)C(=O)N[C@@H](CSC2CC(=O)N(c3ccc4c(c3)C(=O)OC43c4ccc(O)cc4Oc4cc(O)ccc43)C2=O)C(N)=O)NC1=O (some centres unmarked) [peptide 30] (I: {CH2CO}-[dW]LYLDDCGDWWICGAC(Fluorescein(5-Mal))-NH2 / II: {CH2CO}-[dW]LYLDDCGDWWICGAC(Fluorescein(5-Mal))-NH2; linker I:7-II:7 via CH2; thioether I:N-I:13, II:N-II:13)
- Kd [3]: 12.3 ± 1.26 nM
- cellular uptake / permeability and localization [4]: permeability and cytosolic localization
- cellular uptake / permeability and localization ([4]; listed as (Ub4_ix_S7C)2CH2-FITC): quickly and efficiently distributed within cells
